Key:
Experiment in all cases: relative viability (nuclei count vs DMSO), 5 days (fraction); higher = more cells survive
NCI-H1355 = system: NCI-H1355
How it was run: (§1)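 Dosing by pin tool came one day after lung cancer cell lines were seeded in 1536-well plates, using either one drug or a fixed anchor-drug dose plus five library-drug doses (not always all listed) in √10 steps. After 5 days, nuclei were counted on 4× images. Relative viability is treated-well nuclei count divided by vehicle-well nuclei count, and values are medians of duplicate plates.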

NCI-H2009 = system: NCI-H2009
How it was run: as §1

NCI-H1755 = system: NCI-H1755
How it was run: as §1

NCI-H358 = system: NCI-H358
How it was run: as §1

NCI-H647 = system: NCI-H647
How it was run: as §1

NCI-H2228 = system: NCI-H2228
How it was run: as §1

COR-L23 = system: COR-L23
How it was run: as §1

NCI-H1793 = system: NCI-H1793
How it was run: as §1

HOP-62 = system: HOP-62
How it was run: as §1

SK-MES-1 = system: SK-MES-1
How it was run: as §1

HCC-15 = system: HCC-15
How it was run: as §1

COR-L 105 = system: COR-L 105
How it was run: as §1

NCI-H2342 = system: NCI-H2342
How it was run: as §1

NCI-H1993 = system: NCI-H1993
How it was run: as §1

EKVX = system: EKVX
How it was run: as §1

HARA = system: HARA
How it was run: as §1

NCI-H1734 = system: NCI-H1734
How it was run: as §1

NCI-H1395 = system: NCI-H1395
How it was run: as §1

UMC-11 = system: UMC-11
How it was run: as §1

NCI-H2170 = system: NCI-H2170
How it was run: as §1

NCI-H2347 = system: NCI-H2347
How it was run: as §1

PC-14 = system: PC-14
How it was run: as §1

NCI-H838 = system: NCI-H838
How it was run: as §1

SMILES: O=C(O)c1ccc(-c2c[nH]c3ncc(-c4ccccc4)cc23)cc1C1CCCC1 + O=C(CCCCCCC(=O)Nc1ccccc1)NO [Vorinostat] (partner 1 µM)
- relative viability (NCI-H1355; first compound 0.04 µM): 0.647
- relative viability (NCI-H1355; first compound 0.1265 µM): 0.753
- relative viability (NCI-H1355; first compound 0.4 µM): 0.694
- relative viability (NCI-H1355; first compound 1.265 µM): 0.615
- relative viability (NCI-H2009; first compound 0.04 µM): 0.719
- relative viability (NCI-H2009; first compound 0.1265 µM): 0.733
- relative viability (NCI-H2009; first compound 0.4 µM): 0.744
- relative viability (NCI-H2009; first compound 1.265 µM): 0.635
- relative viability (NCI-H1755; first compound 0.04 µM): 0.762
- relative viability (NCI-H1755; first compound 0.1265 µM): 0.806
- relative viability (NCI-H1755; first compound 0.4 µM): 0.797
- relative viability (NCI-H1755; first compound 1.265 µM): 0.745
- relative viability (NCI-H358; first compound 0.04 µM): 0.574
- relative viability (NCI-H358; first compound 0.1265 µM): 0.795
- relative viability (NCI-H358; first compound 0.4 µM): 0.536
- relative viability (NCI-H358; first compound 1.265 µM): 0.229
- relative viability (NCI-H647; first compound 0.04 µM): 0.645
- relative viability (NCI-H647; first compound 0.1265 µM): 0.47
- relative viability (NCI-H647; first compound 0.4 µM): 0.491
- relative viability (NCI-H647; first compound 1.265 µM): 0.361
- relative viability (NCI-H2228; first compound 0.04 µM): 0.831
- relative viability (NCI-H2228; first compound 0.1265 µM): 0.652
- relative viability (NCI-H2228; first compound 0.4 µM): 0.745
- relative viability (NCI-H2228; first compound 1.265 µM): 0.291
- relative viability (COR-L23; first compound 0.04 µM): 0.468
- relative viability (COR-L23; first compound 0.1265 µM): 0.403
- relative viability (COR-L23; first compound 0.4 µM): 0.467
- relative viability (COR-L23; first compound 1.265 µM): 0.233
- relative viability (NCI-H1793; first compound 0.04 µM): 0.835
- relative viability (NCI-H1793; first compound 0.1265 µM): 1.16
- relative viability (NCI-H1793; first compound 0.4 µM): 0.84
- relative viability (NCI-H1793; first compound 1.265 µM): 0.744
- relative viability (HOP-62; first compound 0.04 µM): 0.694
- relative viability (HOP-62; first compound 0.1265 µM): 0.606
- relative viability (HOP-62; first compound 0.4 µM): 0.594
- relative viability (HOP-62; first compound 1.265 µM): 0.48
- relative viability (SK-MES-1; first compound 0.04 µM): 1.13
- relative viability (SK-MES-1; first compound 0.1265 µM): 1.19
- relative viability (SK-MES-1; first compound 0.4 µM): 1.27
- relative viability (SK-MES-1; first compound 1.265 µM): 0.876
- relative viability (HCC-15; first compound 0.04 µM): 0.848
- relative viability (HCC-15; first compound 0.1265 µM): 0.872
- relative viability (HCC-15; first compound 0.4 µM): 0.834
- relative viability (HCC-15; first compound 1.265 µM): 0.59
- relative viability (COR-L 105; first compound 0.04 µM): 0.912
- relative viability (COR-L 105; first compound 0.1265 µM): 0.942
- relative viability (COR-L 105; first compound 0.4 µM): 0.773
- relative viability (COR-L 105; first compound 1.265 µM): 0.921
- relative viability (NCI-H2342; first compound 0.04 µM): 0.783
- relative viability (NCI-H2342; first compound 0.1265 µM): 0.762
- relative viability (NCI-H2342; first compound 0.4 µM): 0.818
- relative viability (NCI-H2342; first compound 1.265 µM): 0.874
- relative viability (NCI-H1993; first compound 0.04 µM): 0.908
- relative viability (NCI-H1993; first compound 0.1265 µM): 1.07
- relative viability (NCI-H1993; first compound 0.4 µM): 0.725
- relative viability (NCI-H1993; first compound 1.265 µM): 0.311
- relative viability (EKVX; first compound 0.04 µM): 0.846
- relative viability (EKVX; first compound 0.1265 µM): 0.758
- relative viability (EKVX; first compound 0.4 µM): 0.713
- relative viability (EKVX; first compound 1.265 µM): 0.712
- relative viability (HARA; first compound 0.04 µM): 0.558
- relative viability (HARA; first compound 0.1265 µM): 0.49
- relative viability (HARA; first compound 0.4 µM): 0.568
- relative viability (HARA; first compound 1.265 µM): 0.405
- relative viability (NCI-H1734; first compound 0.04 µM): 0.866
- relative viability (NCI-H1734; first compound 0.1265 µM): 0.858
- relative viability (NCI-H1734; first compound 0.4 µM): 0.876
- relative viability (NCI-H1734; first compound 1.265 µM): 0.648
- relative viability (NCI-H1395; first compound 0.04 µM): 0.7
- relative viability (NCI-H1395; first compound 0.1265 µM): 0.67
- relative viability (NCI-H1395; first compound 0.4 µM): 0.672
- relative viability (NCI-H1395; first compound 1.265 µM): 0.683
- relative viability (UMC-11; first compound 0.04 µM): 0.419
- relative viability (UMC-11; first compound 0.1265 µM): 0.321
- relative viability (UMC-11; first compound 0.4 µM): 0.347
- relative viability (UMC-11; first compound 1.265 µM): 0.219
- relative viability (NCI-H2170; first compound 0.04 µM): 0.82
- relative viability (NCI-H2170; first compound 0.1265 µM): 0.863
- relative viability (NCI-H2170; first compound 0.4 µM): 0.893
- relative viability (NCI-H2170; first compound 1.265 µM): 0.734
- relative viability (NCI-H2347; first compound 0.04 µM): 0.576
- relative viability (NCI-H2347; first compound 0.1265 µM): 0.773
- relative viability (NCI-H2347; first compound 0.4 µM): 0.597
- relative viability (NCI-H2347; first compound 1.265 µM): 0.46
- relative viability (PC-14; first compound 0.04 µM): 0.733
- relative viability (PC-14; first compound 0.1265 µM): 0.781
- relative viability (PC-14; first compound 0.4 µM): 0.786
- relative viability (PC-14; first compound 1.265 µM): 0.723
- relative viability (NCI-H838; first compound 0.04 µM): 0.68
- relative viability (NCI-H838; first compound 0.1265 µM): 0.773
- relative viability (NCI-H838; first compound 0.4 µM): 0.771
- relative viability (NCI-H838; first compound 1.265 µM): 0.544

Reference: the supplement of paper PMC10307832
